Data from patent US20210276985A1, “NOVEL COMPOUNDS” (priority 2018, published 2021).

Test system: human Kv3.1 channels
Experiment: Kv3.1 channel modulation, IonWorks Quattro planar array electrophysiology in HEK-hKv3.1 cells
Assay type: cell-based
Settings: hKv3.1 HEK cells, -15 mV step
Source text: The ability of the compounds of the invention to modulate the voltage-gated potassium channel subtypes Kv3.3/Kv3.2/Kv3.1 may be determined using the following assay. Analogous methods may be used to investigate the ability of the compounds of the invention to modulate other channel subtypes.
To assess compound effects on human Kv3.1 channels (hKv3.1): Human embryonic kidney (HEK)-hKv3.1 cell line is generated by transfecting HEK-293 cells with an expression vector with human Kv3.1 (NM_004976.4). Cells are cultured with MEM supplemented with 10% Heat-Inactivated FBS, 2 mM L-glutamine, 1% Penicillin-Streptomycin, and 0.6 mg/ml of Geneticin (G418). HEK-hKv3.1b cells were amplified in T175 cm2 flask at 37° C. with 5% CO2, using MEM amplification medium, containing the G418 selection antibiotic (0.6 mg/ml). Cells were detached every 3-4 days, using DPBS to wash twice the flask, then TrypLE to dislodge the cells, and re-plated at a density of 2-4×10^6 cells/flask.
The day of the experiment, cells are removed from the incubator and the culture medium removed. […]
Experiments are conducted at r.t. using IonWorks Quattro™ planar array electrophysiology technology (Molecular Devices Corp.) with PatchPlate™ PPC. […] Planar electrode hole resistances (Rp) are determined by applying a 10 mV voltage step across each well. […]

CC[C@@H]1NC(=O)N(c2cnc(Oc3ccc(C)c4c3C3(CC3)CO4)cn2)C1=O [Example 15, (5S)-5-ethyl-3-[5-(7-methylspiro[2H-benzofuran-3,1′-cyclopropane]-4-yl)oxypyrazin-2-yl]imidazolidine-2,4-dione]
Kv3.1 pEC50 (EC50 = 50% of maximum increase by reference compound): 5.10
Kv3.1 max R % (normalised to maximum effect of reference compound (50 microM)): 136%
